Measurements as given in patent publication EP2835136A1, “Somatostatin Receptor Modulator for the treatment of infertility” (PregLem S.A., priority 2013, dated 2015).
Bridge positions count the residues as written; N and C are the ends. Square brackets hold non-standard residues; d marks the D form. Peptide text beside a SMILES is read from it. Phe(4-Cl) = N[C@@H](Cc1ccc(Cl)cc1)C(=O)O; 2Nal = N[C@@H](Cc1ccc2ccccc2c1)C(=O)O; 4Pal = N[C@@H](Cc1ccncc1)C(=O)O; NMeK = CN[C@@H](CCCCN)C(=O)O

Key:
[1] = biological target: hsst5 (Homo sapiens, UniProt P35346); test: in vitro binding assay, hsst5
[2] = biological target: hsst3 (Homo sapiens, UniProt P32745); test: in vitro binding assay, hsst3
[3] = biological target: hsst1 (Homo sapiens, UniProt P30872); test: in vitro binding assay, hsst1
[4] = biological target: hsst4 (Homo sapiens, UniProt P31391); test: in vitro binding assay, hsst4
[5] = biological target: hsst2 (Homo sapiens, UniProt P30874); test: in vitro binding assay, hsst2
hsst2, sequence (P30874 whole entry): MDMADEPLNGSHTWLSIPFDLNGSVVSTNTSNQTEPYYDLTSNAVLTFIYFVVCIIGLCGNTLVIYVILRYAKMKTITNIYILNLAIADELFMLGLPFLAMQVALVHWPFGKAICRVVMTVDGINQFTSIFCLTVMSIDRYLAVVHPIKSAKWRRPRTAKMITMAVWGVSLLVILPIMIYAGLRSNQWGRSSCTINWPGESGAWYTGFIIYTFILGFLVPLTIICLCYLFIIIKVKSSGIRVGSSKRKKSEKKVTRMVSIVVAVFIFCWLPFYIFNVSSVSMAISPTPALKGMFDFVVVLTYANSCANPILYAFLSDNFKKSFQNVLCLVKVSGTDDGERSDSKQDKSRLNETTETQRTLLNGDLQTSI

hsst3, sequence (P32745 whole entry): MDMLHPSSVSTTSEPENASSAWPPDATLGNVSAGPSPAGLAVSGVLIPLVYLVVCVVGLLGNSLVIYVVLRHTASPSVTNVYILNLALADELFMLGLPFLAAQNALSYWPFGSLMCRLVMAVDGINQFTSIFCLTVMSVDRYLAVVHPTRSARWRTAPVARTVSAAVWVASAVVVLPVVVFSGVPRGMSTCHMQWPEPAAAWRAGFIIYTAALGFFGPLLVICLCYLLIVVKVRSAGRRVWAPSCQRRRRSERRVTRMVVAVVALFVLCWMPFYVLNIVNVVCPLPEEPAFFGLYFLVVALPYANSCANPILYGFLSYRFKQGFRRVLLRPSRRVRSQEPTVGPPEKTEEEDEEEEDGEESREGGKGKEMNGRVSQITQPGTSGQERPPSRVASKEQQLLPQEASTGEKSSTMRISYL
hsst5, sequence (P35346 whole entry): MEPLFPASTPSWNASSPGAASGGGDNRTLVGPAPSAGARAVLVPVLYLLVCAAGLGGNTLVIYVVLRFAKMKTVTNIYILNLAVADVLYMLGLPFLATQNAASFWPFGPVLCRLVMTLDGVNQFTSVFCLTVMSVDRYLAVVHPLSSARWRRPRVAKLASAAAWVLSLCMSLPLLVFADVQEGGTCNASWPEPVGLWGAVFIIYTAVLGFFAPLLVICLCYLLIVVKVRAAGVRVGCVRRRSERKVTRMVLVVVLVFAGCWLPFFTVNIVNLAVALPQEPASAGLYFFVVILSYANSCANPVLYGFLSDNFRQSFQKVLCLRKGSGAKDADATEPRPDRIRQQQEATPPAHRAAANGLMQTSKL
hsst4, sequence (P31391 whole entry): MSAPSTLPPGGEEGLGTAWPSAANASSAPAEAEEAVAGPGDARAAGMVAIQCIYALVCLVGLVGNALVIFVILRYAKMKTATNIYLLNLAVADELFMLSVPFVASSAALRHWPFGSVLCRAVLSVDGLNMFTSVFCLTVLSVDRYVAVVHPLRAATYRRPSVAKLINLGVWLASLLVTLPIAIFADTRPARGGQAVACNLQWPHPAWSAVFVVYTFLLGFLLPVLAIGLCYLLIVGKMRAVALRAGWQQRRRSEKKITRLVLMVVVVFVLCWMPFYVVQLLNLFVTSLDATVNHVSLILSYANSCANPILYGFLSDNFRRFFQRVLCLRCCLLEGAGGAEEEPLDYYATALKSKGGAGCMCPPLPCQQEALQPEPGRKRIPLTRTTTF
hsst1, sequence (P30872 whole entry): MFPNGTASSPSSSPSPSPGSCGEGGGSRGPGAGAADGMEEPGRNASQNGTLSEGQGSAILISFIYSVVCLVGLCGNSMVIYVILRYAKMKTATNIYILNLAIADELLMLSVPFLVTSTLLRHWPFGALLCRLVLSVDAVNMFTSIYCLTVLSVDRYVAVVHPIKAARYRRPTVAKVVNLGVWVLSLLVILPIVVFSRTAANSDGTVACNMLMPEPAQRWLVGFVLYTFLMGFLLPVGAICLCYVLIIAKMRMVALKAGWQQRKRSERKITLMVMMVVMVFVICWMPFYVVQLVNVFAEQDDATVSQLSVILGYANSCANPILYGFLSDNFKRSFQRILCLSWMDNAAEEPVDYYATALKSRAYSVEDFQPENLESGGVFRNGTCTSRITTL

SMILES	Ki [1]	Ki [2]	Ki [3]	Ki [4]	Ki [5]
C[C@@H](O)[C@@H]1NC(=O)[C@H](CCCCN)NC(=O)[C@@H](Cc2c[nH]c3ccccc23)NC(=O)[C@H](Cc2ccncc2)NC(=O)[C@H](NC(=O)[C@@H](N)Cc2ccc(Cl)cc2)CSSC[C@@H](C(=O)N[C@@H](Cc2ccc3ccccc3c2)C(N)=O)NC1=O [Compound "A", Cpa-[D-Cys-4-Pal-D-Trp-Lys-Thr-Cys]-2-Nal-NH2]	86 nM	44 nM	2760 nM	711 nM	6.4 nM
C[C@@H](O)[C@@H]1NC(=O)[C@H](CCCCN)N(C)C(=O)[C@@H](Cc2c[nH]c3ccccc23)NC(=O)[C@H](Cc2ccncc2)NC(=O)[C@H](NC(=O)[C@@H](N)Cc2ccc(Cl)cc2)CSSC[C@@H](C(=O)N[C@@H](Cc2ccc3ccccc3c2)C(N)=O)NC1=O [Compound "B", Cpa-[D-Cys-4-Pal-D-Trp-N-Me-Lys-Thr-Cys]-2-Nal-NH2] (H-[Phe(4-Cl)][dC][4Pal][dW][NMeK]TC[2Nal]-NH2; disulfide 2-7)	6 nM	66 nM	1000 nM	1000 nM	17.1 nM
